# From patent publication US6897209B2, “Labelled factor XIIIa substrates” (GE Healthcare Limited, priority 1997, dated 2005)
# What was measured:
# [1] = tested on: human plasma clots; assay: Incorporation into human plasma clots (in vitro plasma clot assay); type: biochemical; conditions: control vials without thrombin and calcium chloride, 60 minutes
# [2] = biological target: T1, human plasma clots (Homo sapiens, UniProt P00488); assay: as above; type: biochemical; conditions: for % specific uptake*: % retained with thrombin − % retained no thrombin; for % retained in plasma clot assay (with thrombin): human plasma with thrombin and calcium chloride, 60 minutes, ca. 20° C.
# T1 construct: Factor XIII is transformed into its active form Factor XIIIa by thrombin in the presence of calcium ions; from tissue; host or cells: human plasma, clotted in vitro with thrombin and calcium chloride
# T1 sequence (P00488 39-732): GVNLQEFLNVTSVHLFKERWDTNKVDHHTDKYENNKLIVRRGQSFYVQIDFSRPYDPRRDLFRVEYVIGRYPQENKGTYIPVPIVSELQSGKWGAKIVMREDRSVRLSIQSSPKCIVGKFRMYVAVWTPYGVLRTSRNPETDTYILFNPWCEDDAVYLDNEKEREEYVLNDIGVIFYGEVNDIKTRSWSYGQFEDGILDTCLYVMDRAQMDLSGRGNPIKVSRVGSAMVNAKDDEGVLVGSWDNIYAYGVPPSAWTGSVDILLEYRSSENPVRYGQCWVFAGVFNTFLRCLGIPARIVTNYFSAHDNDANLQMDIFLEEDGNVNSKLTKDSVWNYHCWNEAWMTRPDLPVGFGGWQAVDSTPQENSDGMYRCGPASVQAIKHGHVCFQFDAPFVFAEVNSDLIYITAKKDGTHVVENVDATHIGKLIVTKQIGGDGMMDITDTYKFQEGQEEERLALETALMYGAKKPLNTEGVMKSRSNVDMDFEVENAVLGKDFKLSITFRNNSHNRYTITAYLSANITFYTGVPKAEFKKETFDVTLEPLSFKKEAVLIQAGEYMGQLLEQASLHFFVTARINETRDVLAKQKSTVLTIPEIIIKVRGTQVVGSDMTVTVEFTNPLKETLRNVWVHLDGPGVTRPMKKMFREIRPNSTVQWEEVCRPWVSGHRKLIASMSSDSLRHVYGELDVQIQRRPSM
# [3] = biological target: T2, Factor XIIIa (Homo sapiens, UniProt P00488); assay: Factor XIIIa dependency of incorporation (dimethylcasein uptake, normal vs Factor XIII deficient plasma); type: biochemical; conditions: 1 KBq/ml, 60 minutes; uptake in normal plasma minus Factor XIII deficient plasma
# T2 construct: Factor XIII is transformed into its active form Factor XIIIa by thrombin in the presence of calcium ions; from tissue; host or cells: human plasma
# T2 sequence (P00488 39-732 limits assumed): T1 sequence (P00488 39-732)
# Method: The assay was changed by replacing the mercaptoethanol with aprotinin at a final concentration of 2 μg/ml, and dimethylcasein (DMC) was used instead of casein.
# [4] = Normal rat biodistribution; type: in vivo; conditions: i.v., male Wistar rats, Mean±SD n=3
# Method: The resolution of a clot image is dependant on the combination of rate of incorporation of the radiopharmaceutical and its blood/tissues clearance rate. For this reason the biodistribution of several compounds has been determined in rats. Male Wistar (100-150 g) rats were injected i.v. with 0.1-0.2 ml of radiolabelled tracer solution (8 MBq/ml) and dissected at different times post-injection. The % ID in each of the selected tissues was measured. Some animals were kept in metabolism cages to be able to determine the % ID excreted in urine and faeces. The dissection times used for the majority of the agents was 2, 15, 30, 60, 240 min. Data are shown as % ID, Mean±SD, (n=3).
# [5] = tested on: clots induced in rat inferior vena cava; assay: Incorporation into clots induced in a rat model (rat inferior vena cava model); type: in vivo; conditions: rat IVC model; for Clot/Blood / Clot/Heart / Clot/Liver / Clot/Lung: 60 min; for % ID/g (clot uptake) / Relative conc (cpm/g of clot by dose/g animal): compound injected 5 min post-induction, clot removed after 60 min
# Method in brief: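 Male Wistar rats (250-350 g) were anaesthetised with 15% urethane, and compounds were injected 5 min after clot induction. Animals were killed at 60 min, and clots (about 27 mg) and tissues were weighed and counted. Uptake was given as cpm/g clot by dose/g animal and as clot-to-background ratios.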
structure (smiles),measurement,setting,value
"CC(=NO)C(C)(C)NCC(C)(CNC(=O)c1ccc(S(=O)(=O)NCCCCCN)cc1)CNC(C)(C)C(C)=NO (stereo not shown) [Compound 3, 3,3,6,9,9-pentamethyl-6-(4-(N-(5-aminopentyl)amidosulphonyl)benzamidomethyl)-4,8-diazaundecane-2,10-dione dioxime]",% retained in plasma clot assay (no thrombin),[1],3.0%
same,% specific uptake*,[2],19%
same,% retained in plasma clot assay (with thrombin),[2],22%
same,% specific DMC casein uptake,[3],40%
same,% ID Blood,[4]; 2 min post-injection,19.29 ± 1.7 % ID
same,% ID GI Tract,[4]; 2 min post-injection,10.1 ± 1.2 % ID
same,% ID Heart,[4]; 2 min post-injection,0.51 + 0.08 % ID
same,% ID Kidney,[4]; 2 min post-injection,5.55 + 1 % ID
same,% ID Liver,[4]; 2 min post-injection,19.34 ± 0.8 % ID
same,% ID Lung,[4]; 2 min post-injection,1.43 ± 0.16 % ID
same,% ID Muscle,[4]; 2 min post-injection,23.6 ± 0.9 % ID
same,% ID Urine,[4]; 2 min post-injection,0.06 ± 0.02 % ID
same,% ID Blood,[4]; 15 min post-injection,1.45 ± 0.38 % ID
same,% ID GI Tract,[4]; 15 min post-injection,70 + 3.4 % ID
same,% ID Kidney,[4]; 15 min post-injection,2.1 ± 0.8 % ID
same,% ID Liver,[4]; 15 min post-injection,7.79 ± 1.16 % ID
same,% ID Lung,[4]; 15 min post-injection,0.23 ± 0.12 % ID
same,% ID Muscle,[4]; 15 min post-injection,4.87 ± 0.6 % ID
same,% ID Urine,[4]; 15 min post-injection,5.01 ± 2.53 % ID
same,% ID Blood,[4]; 30 min post-injection,0.59 ± 0.07 % ID
same,% ID GI Tract,[4]; 30 min post-injection,76.5 ± 5.6 % ID
same,% ID Kidney,[4]; 30 min post-injection,2.09 ± 1.87 % ID
same,% ID Liver,[4]; 30 min post-injection,1.95 ± 0.35 % ID
same,% ID Lung,[4]; 30 min post-injection,0.03 + 0.04 % ID
same,% ID Muscle,[4]; 30 min post-injection,1.53 ± 0.71 % ID
same,% ID Urine,[4]; 30 min post-injection,14.42 ± 3.78 % ID
same,% ID Blood,[4]; 60 min post-injection,0.31 ± 0.02 % ID
same,% ID GI Tract,[4]; 60 min post-injection,79.9 ± 2.9 % ID
same,% ID Kidney,[4]; 60 min post-injection,0.57 ± 0.12 % ID
same,% ID Liver,[4]; 60 min post-injection,1.54 ± 0.29 % ID
same,% ID Lung,[4]; 60 min post-injection,0.07 ± 0.02 % ID
same,% ID Muscle,[4]; 60 min post-injection,1.14 ± 0.48 % ID
same,% ID Urine,[4]; 60 min post-injection,14.66 ± 2.83 % ID
same,% ID Blood,[4]; 240 min post-injection,0.11 ± 0.07 % ID
same,% ID GI Tract,[4]; 240 min post-injection,83.5 ± 2.2 % ID
same,% ID Kidney,[4]; 240 min post-injection,0.45 ± 0.04 % ID
same,% ID Liver,[4]; 240 min post-injection,1.35 ± 0.06 % ID
same,% ID Lung,[4]; 240 min post-injection,0.14 + 0.24 % ID
same,% ID Muscle,[4]; 240 min post-injection,0.8 ± 0.17 % ID
same,% ID Urine,[4]; 240 min post-injection,12.31 ± 1.93 % ID
same,Clot/Blood,[5],2
same,Clot/Heart,[5],3.4
same,Clot/Liver,[5],0.23
same,Clot/Lung,[5],2.2
same,% ID/g (clot uptake),[5],0.10 ± 0.02 % ID/g
same,Relative conc (cpm/g of clot by dose/g animal),[5],0.37 ± 0.1
"CC(=NO)C(C)(C)NCC(C)(CNC(=O)CCCCCN)CNC(C)(C)C(C)=NO (stereo not shown) [Compound 4, 3,3,6,9,9-pentamethyl-6-N-(6aminohexoyl)aminomethyl-4,8-diazaundecane-2,10-dione dioxime]",% retained in plasma clot assay (no thrombin),[1],0.4%
same,% specific uptake*,[2],2.6%
same,% retained in plasma clot assay (with thrombin),[2],3%
same,% specific DMC casein uptake,[3],2%
same,% ID Blood,[4]; 2 min post-injection,10.33 ± 1.2 % ID
same,% ID GI Tract,[4]; 2 min post-injection,13.6 ± 0.8 % ID
same,% ID Heart,[4]; 2 min post-injection,0.33 + 0.06 % ID
same,% ID Kidney,[4]; 2 min post-injection,8.34 ± 2.7 % ID
same,% ID Liver,[4]; 2 min post-injection,19.9 ± 0.87 % ID
same,% ID Lung,[4]; 2 min post-injection,1.08 ± 0.15 % ID
same,% ID Muscle,[4]; 2 min post-injection,22.6 ± 0.8 % ID
same,% ID Urine,[4]; 2 min post-injection,2.44 ± 1.68 % ID
same,% ID Blood,[4]; 30 min post-injection,0.98 ± 0.18 % ID
same,% ID GI Tract,[4]; 30 min post-injection,62.7 ± 2.7 % ID
same,% ID Heart,[4]; 30 min post-injection,0.04 + 0.02 % ID
same,% ID Kidney,[4]; 30 min post-injection,2.39 ± 0.81 % ID
same,% ID Liver,[4]; 30 min post-injection,5.06 ± 0.89 % ID
same,% ID Lung,[4]; 30 min post-injection,0.16 % ID
same,% ID Muscle,[4]; 30 min post-injection,5.27 ± 0.4 % ID
same,% ID Urine,[4]; 30 min post-injection,19.49 ± 1.96 % ID
same,% ID Blood,[4]; 60 min post-injection,0.43 ± 0.07 % ID
same,% ID GI Tract,[4]; 60 min post-injection,68.6 ± 0.4 % ID
same,% ID Heart,[4]; 60 min post-injection,0.02 + 0.02 % ID
same,% ID Kidney,[4]; 60 min post-injection,1.49 ± 0.04 % ID
same,% ID Liver,[4]; 60 min post-injection,5.3 ± 0.9 % ID
same,% ID Lung,[4]; 60 min post-injection,0.1 ± 0.04 % ID
same,% ID Muscle,[4]; 60 min post-injection,2.26 ± 0.05 % ID
same,% ID Urine,[4]; 60 min post-injection,18.81 ± 0.85 % ID
same,% ID Blood,[4]; 240 min post-injection,0.21 ± 0.08 % ID
same,% ID GI Tract,[4]; 240 min post-injection,70.1 ± 1.9 % ID
same,% ID Heart,[4]; 240 min post-injection,0.01 + 0.04 % ID
same,% ID Kidney,[4]; 240 min post-injection,1.51 ± 0.02 % ID
same,% ID Liver,[4]; 240 min post-injection,3.81 ± 0.92 % ID
same,% ID Lung,[4]; 240 min post-injection,0.06 ± 0.01 % ID
same,% ID Muscle,[4]; 240 min post-injection,1.94 ± 0.35 % ID
same,% ID Urine,[4]; 240 min post-injection,19.88 ± 3.03 % ID
same,Clot/Blood,[5],2.3
same,Clot/Heart,[5],4.0
same,Clot/Liver,[5],0.27
same,Clot/Lung,[5],2.7
same,% ID/g (clot uptake),[5],0.18 ± 0.06 % ID/g
same,Relative conc (cpm/g of clot by dose/g animal),[5],0.52 ± 0.2
